According to patent US20260015353A1, “NOVEL COMPOUNDS” (Hoffmann-La Roche Inc., priority 2022, published 2026):

Key:
NLRP3 [1] = target: T1, NLRP3 (Homo sapiens, UniProt Q96P20); experiment: THP-1 cells pyroptosis assay (LPS + nigericin, resazurin readout); format: cell-based; set-up: Seed THP-1 cells (25,000cells/well) containing 1.0 μg/ml LPS; host or cells: THP-1 cells, LPS-primed, nigericin-stimulated; settings: 1.0 μg/ml LPS, compound 3 hours, nigericin 5 μM 1 hr
Experimental: THP-1 cells (ATCC #TIB-202) were grown in RPMI containing L-glutamine (Gibco #11835) supplemented with 1 mM sodium pyruvate (Sigma #S8636) and penicillin (100 units/ml)/streptomycin (0.1 mg/ml) (Sigma #P4333) in 10% Fetal Bovine Serum (FBS) (Sigma #F0804). The cells were routinely passaged and grown to confluency (˜10^6cells/ml). On the day of the experiment, THP-1 cells were harvested and resuspended into RPMI medium (without FBS). The cells were then counted and viability (>90%) checked by Trypan blue (Sigma #T8154). Appropriate dilutions were made to give a concentration of 625,000cells/ml. To this diluted cell solution was added LPS (Sigma #L4524) to give a lug/ml Final Assay Concentration (FAC). 40 μl of the final preparation was aliquoted into each well of a 96-well plate. The plate thus prepared was used for compound screening.
The following method step-by-step assay was followed for compound screening. • 1. Seed THP-1 cells (25,000cells/well) containing 1.0 μg/ml LPS in 40 μl of RPMI medium (without FBS) in 96-well, black walled, clear bottom cell culture plates coated with poly-D-lysine (VWR #734-0317) • 2. Add 5 μl compound (8 points half-log dilution, with 10 μM top dose) or vehicle (DMSO 0.1% FAC) to the appropriate wells • 3. Incubate for 3 hours at 37° C., 5% CO2 • 4. Add 5 μl nigericin (Sigma #N7143) (FAC 5 μM) to all wells • 5. Incubate for 1 hr at 37° C., 5% CO2 • 6. At the end of the incubation period, spin plates at 300×g for 3 mins and remove supernatant • 7. Then add 50 μl of resazurin (Sigma #R^7017) (FAC 100 μM resazurin in RPMI medium without FBS) and incubate plates for a further 1-2 hours at 37° C. and 5% CO2 • 8. Plates were read in an Envision reader at Ex 560 nm and Em 590 nm • 9. IC50 data is fitted to a non-linear regression equation (log inhibitor vs response-variable slope 4-parameters)

NLRP3 [2] = target: T1, NLRP3; experiment: Human whole blood IL-1β release assay (LPS + nigericin, AlphaLisa); format: cell-based; set-up: Human whole blood in Li-heparin tubes was obtained from healthy donors; from tissue; host or cells: human whole blood from healthy donors, LPS-primed, nigericin-stimulated; settings: 1 ug/ml LPS, compound 3 hours, nigericin 10 μM 1 hr, IL-1β in supernatant
Experimental: For systemic delivery, the ability to inhibit NLRP3 when the compounds are present within the bloodstream is of great importance. For this reason, the NLRP3 inhibitory activity of a number of compounds in human whole blood was investigated in accordance with the following protocol.
Human whole blood in Li-heparin tubes was obtained from healthy donors from a volunteer donor panel. • 1. Plate out 80 μl of whole blood containing lug/ml of LPS in 96-well, clear bottom cell culture plate (Corning #3585) • 2. Add 10 μl compound (8 points half-log dilution with 10 μM top dose) or vehicle (DMSO 0.1% FAC) to the appropriate wells • 3. Incubate for 3 hours at 37° C., 5% CO2 • 4. Add 10 μl nigericin (Sigma #N7143) (10 μM FAC) to all wells • 5. Incubate for 1 hr at 37° C., 5% CO2 • 6. At the end of the incubation period, spin plates at 300×g for 5 mins to pellet cells and remove 20 μl of supernatant and add to 96-well v-bottom plates for IL-1β analysis (note: these plates containing the supernatants can be stored at −80° C. to be analysed at a later date) • 7. IL-1β was measured according to the manufacturer protocol (Perkin Elmer-AlphaLisa IL-1 Kit AL220F-5000) • 8. IC50 data is fitted to a non-linear regression equation (log inhibitor vs response-variable slope 4-parameters)

T1 sequence (Q96P20 whole entry): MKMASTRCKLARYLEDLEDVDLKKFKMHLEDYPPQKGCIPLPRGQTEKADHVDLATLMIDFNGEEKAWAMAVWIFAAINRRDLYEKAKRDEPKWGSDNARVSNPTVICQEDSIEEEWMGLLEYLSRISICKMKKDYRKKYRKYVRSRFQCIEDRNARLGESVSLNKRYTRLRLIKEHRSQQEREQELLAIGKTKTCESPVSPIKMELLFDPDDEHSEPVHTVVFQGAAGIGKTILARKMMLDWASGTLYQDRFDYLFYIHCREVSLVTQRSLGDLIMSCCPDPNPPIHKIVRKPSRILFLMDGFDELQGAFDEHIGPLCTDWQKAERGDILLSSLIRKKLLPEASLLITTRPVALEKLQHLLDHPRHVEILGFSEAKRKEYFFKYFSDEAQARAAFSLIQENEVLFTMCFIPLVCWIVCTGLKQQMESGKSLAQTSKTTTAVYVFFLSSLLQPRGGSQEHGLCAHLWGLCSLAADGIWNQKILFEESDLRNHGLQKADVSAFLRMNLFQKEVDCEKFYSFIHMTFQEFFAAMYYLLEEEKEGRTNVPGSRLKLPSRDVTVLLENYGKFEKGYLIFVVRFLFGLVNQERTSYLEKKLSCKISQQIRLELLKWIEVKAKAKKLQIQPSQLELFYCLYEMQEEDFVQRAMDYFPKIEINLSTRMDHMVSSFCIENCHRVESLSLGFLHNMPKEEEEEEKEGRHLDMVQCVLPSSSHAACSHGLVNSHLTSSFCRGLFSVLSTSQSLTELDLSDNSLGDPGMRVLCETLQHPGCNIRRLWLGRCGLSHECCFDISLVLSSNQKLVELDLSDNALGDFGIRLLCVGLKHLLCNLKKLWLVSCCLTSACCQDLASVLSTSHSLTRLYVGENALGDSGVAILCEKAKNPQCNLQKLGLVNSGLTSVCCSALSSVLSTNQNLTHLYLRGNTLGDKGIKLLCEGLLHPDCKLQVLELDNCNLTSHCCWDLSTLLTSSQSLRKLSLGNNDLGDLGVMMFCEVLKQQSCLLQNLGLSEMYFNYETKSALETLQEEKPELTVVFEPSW

SMILES	IC50 (NLRP3 [1]) [nM]	IC50 (NLRP3 [2]) [nM]
CCN1CCC2CCN(c3nnc(-c4ccc5c(c4O)CCO5)c(C)n3)C2C1 (single isomer, unassigned) [Example 1A, 5-[3-[(3aS,7aR)-6-Ethyl-3,3a,4,5,7,7a-hexahydro-2H-pyrrolo[2,3-c]pyridin-1-yl]-5-methyl-1,2,4-triazin-6-yl]-2,3-dihydrobenzofuran-4-ol or 5-[3-[(3aR,7aS)-6-ethyl-3,3a,4,5,7,7a-hexahydro-2H-pyrrolo[2,3-c]pyridin-1-yl]-5-methyl-1,2,4-triazin-6-yl]-2,3-dihydrobenzofuran-4-ol]	1.8	12
CCN1CCC2CCN(c3nnc(-c4ccc5c(c4O)CCO5)c(C)n3)C2C1 (single isomer, unassigned) [Example 1B, 5-[3-[(3aR,7aS)-6-Ethyl-3,3a,4,5,7,7a-hexahydro-2H-pyrrolo[2,3-c]pyridin-1-yl]-5-methyl-1,2,4-triazin-6-yl]-2,3-dihydrobenzofuran-4-ol or 5-[3-[(3aS,7aR)-6-ethyl-3,3a,4,5,7,7a-hexahydro-2H-pyrrolo[2,3-c]pyridin-1-yl]-5-methyl-1,2,4-triazin-6-yl]-2,3-dihydrobenzofuran-4-ol]	64.4	375
CCN1CC[C@H]2CCN(c3nnc(-c4ccc(C#N)cc4O)c(C)n3)[C@H]2C1 (single isomer, unassigned) [Example 2A, 4-[3-[(3aS,7aR)-6-Ethyl-3,3a,4,5,7,7a-hexahydro-2H-pyrrolo[2,3-c]pyridin-1-yl]-5-methyl-1,2,4-triazin-6-yl]-3-hydroxy-benzonitrile or 4-[3-[(3aR,7aS)-6-ethyl-3,3a,4,5,7,7a-hexahydro-2H-pyrrolo[2,3-c]pyridin-1-yl]-5-methyl-1,2,4-triazin-6-yl]-3-hydroxy-benzonitrile]	36.4	38
Cc1nc(N2CC[C@@H]3CCN(C)C[C@@H]32)nnc1-c1ccc2c(c1O)CCO2 (single isomer, unassigned) [Example 3A, 5-[3-[(3aS,7aR)-6-Methyl-3,3a,4,5,7,7a-hexahydro-2H-pyrrolo[2,3-c]pyridin-1-yl]-5-methyl-1,2,4-triazin-6-yl]-2,3-dihydrobenzofuran-4-ol or 5-[3-[(3aR,7aS)-6-methyl-3,3a,4,5,7,7a-hexahydro-2H-pyrrolo[2,3-c]pyridin-1-yl]-5-methyl-1,2,4-triazin-6-yl]-2,3-dihydrobenzofuran-4-ol]	1.9	7
Cc1nc(N2CC[C@@H]3CCN(C)C[C@@H]32)nnc1-c1ccc(C#N)cc1O (single isomer, unassigned) [Example 4A, 4-[3-[(3aS,7aR)-6-Methyl-3,3a,4,5,7,7a-hexahydro-2H-pyrrolo[2,3-c]pyridin-1-yl]-5-methyl-1,2,4-triazin-6-yl]-3-hydroxy-benzonitrile or 4-[3-[(3aR,7aS)-6-methyl-3,3a,4,5,7,7a-hexahydro-2H-pyrrolo[2,3-c]pyridin-1-yl]-5-methyl-1,2,4-triazin-6-yl]-3-hydroxy-benzonitrile]	47.4	41

Next, values leading:

IC50 (NLRP3 [1]) [nM]	IC50 (NLRP3 [2]) [nM]	SMILES
> 1000		CCN1CCC2CCN(c3nnc(-c4ccc(C#N)cc4O)c(C)n3)C2C1 (single isomer, unassigned) [Example 2B, 4-[3-[(3aR,7aS)-6-Ethyl-3,3a,4,5,7,7a-hexahydro-2H-pyrrolo[2,3-c]pyridin-1-yl]-5-methyl-1,2,4-triazin-6-yl]-3-hydroxy-benzonitrile or 4-[3-[(3aS,7aR)-6-ethyl-3,3a,4,5,7,7a-hexahydro-2H-pyrrolo[2,3-c]pyridin-1-yl]-5-methyl-1,2,4-triazin-6-yl]-3-hydroxy-benzonitrile]
52.2	115	Cc1nc(N2CCC3CCN(C)CC32)nnc1-c1ccc2c(c1O)CCO2 (single isomer, unassigned) [Example 3B, 5-[3-[(3aR,7aS)-6-Methyl-3,3a,4,5,7,7a-hexahydro-2H-pyrrolo[2,3-c]pyridin-1-yl]-5-methyl-1,2,4-triazin-6-yl]-2,3-dihydrobenzofuran-4-ol or 5-[3-[(3aS,7aR)-6-methyl-3,3a,4,5,7,7a-hexahydro-2H-pyrrolo[2,3-c]pyridin-1-yl]-5-methyl-1,2,4-triazin-6-yl]-2,3-dihydrobenzofuran-4-ol]
> 1000		Cc1nc(N2CCC3CCN(C)CC32)nnc1-c1ccc(C#N)cc1O (single isomer, unassigned) [Example 4B, 4-[3-[(3aR,7aS)-6-Methyl-3,3a,4,5,7,7a-hexahydro-2H-pyrrolo[2,3-c]pyridin-1-yl]-5-methyl-1,2,4-triazin-6-yl]-3-hydroxy-benzonitrile or 4-[3-[(3aS,7aR)-6-methyl-3,3a,4,5,7,7a-hexahydro-2H-pyrrolo[2,3-c]pyridin-1-yl]-5-methyl-1,2,4-triazin-6-yl]-3-hydroxy-benzonitrile]
